Assay results from US8129426B2, “Water-soluble artemisinin derivatives, their preparation methods, the pharmaceutical compositions and the use thereof” (priority 2005, dated 2012).

Legend:
[1] = test system: T-cell proliferation (Con A); experiment: Lymphocyte proliferation test, T-cell proliferation stimulated with Con A; assay type: cell-based, Balb/c mice; parameters: concentration or dose not given beside the values; details: concentration without any cytotoxicity; screened at 10, 1 and 0.1 μm
Method: (§1) Experimental animals: inbred Balb/c male mice, 6-8 weeks old.
(§2) RPMI-1640 culture solution (Roswell Park Memorial Institure-1640 medium, from GibcoBRL, Life Technologies, USA) with 10% fetal bovine serum (FBS), 100 U/mL penicillin, 100 μg/mL streptomycin, 10 mM HEPES (4-(2-hydroxyethyl)-1-piperazineethane sulfonic acid) and 50 μM 2-ME (2-Mercaptoethanol).
(§3) Stimulant: Concanavalin (ConA), and bacterial Lipopolysaccharide (LPS, from Escherichia Coli 055: B5), diluted with RPMI-1640 culture solution to suitable concentration before using.
(§4) [2] Lymphocyte Proliferation Test
(§5) 1) Mice were killed by cervical dislocation, and their spleens were collected aseptically and prepared into a single cell suspension. The cell concentration was adjusted to 4×10^6/mL with RPMI-1640 medium containing 10% FBS.
(§6) 2) 100 μL cell suspension, 50 μL testing sample solution, 50 μL ConA or LPS solution were added into a 96-well plate, and for the control group, 50 μL medium containing 10% FBS was added. The total volume was 200 μL.
(§7) 3) The cell culture was incubated in 5% CO2 incubator at 37 °C for 48 hours, and 0.5 μCi [^3H]-thymidine (25 μL/well) was added into each well 7-8 hours before the termination of the incubation.
(§8) 4) After the incubation was terminated, the cells were harvested on a glassfiber film with a cell harvestor (HARVESTER96®, TOMTEC), and after scintillation fluid was added, the incorporation of [^3H]-thymidine in the cell DNA was measured with a liquid scintillation counter (MicroBeta Trilux®, PerkinElmer) to indicate the state of cell proliferation.

[2] = test system: B-cell proliferation (LPS); experiment: Lymphocyte proliferation test, B-cell proliferation stimulated with LPS; assay type: cell-based, Balb/c mice; details: concentration without any cytotoxicity; screened at 10, 1 and 0.1 μm
Method: as §1, §2, §3, §4, §5, §6, §7, §8

[3] = test system: response lymphocytes in MLR; experiment: Homologous and heterogeneous mixed lymphocyte proliferation reaction (MLR); assay type: cell-based, C57BL/6 and Balb/c mice; details: read-out: EC50, inhibition of proliferation of the response lymphocytes in MLR
Excerpt: [3] Homologous and Heterogeneous Mixed Lymphocyte Proliferation Reaction (MLR)
1) C57BL/6 and Balb/c mice were killed by cervical dislocation, and their spleens were collected aseptically and levigated into a single cell suspension. After removing the erythrocytes, the cell concentration was adjusted to 6×10^6/mL with RPMI-1640 medium containing 10% FBS.
2) The spleen cells of C57BL/6 mice as the response cells and the spleen cells of Balb/c mice (irradiated with Co60, 3000 rads) as the stimulus cells were mixed in equal volumes.
3) 100 μL cell mixture, 100 μL testing sample were added into a 96-well plate. For the control group, 100 μL medium containing 10% serum was added. And single culture controls of the two kinds of cells were set.
4) The cell cultures were incubated in 5% CO2 incubator at 37 °C for 3, 4 or 5 days. 25 μL ^3H diluent (i.e. […] [^3H]-thymidine) was added one day before the termination of the incubation.
5) After the incubation was terminated, the plate was freezed in a −20[…] refrigerator.
6) The cells were harvested on a glassfiber film with a cell harvestor (HARVESTER96′, TOMTEC), and the incorporation of [^3H]-thymidine in DNA was measured with a liquid scintillation counter (MicroBeta Trilux®, PerkinElmer) to indicate the state of cell proliferation.

DTH mice = experiment: Delayed hypersensitive response animal model (DTH); assay type: in vivo; details: for thickness difference of swelling on ears: FIG. 1, DTH mice; for weight difference of ear slices: FIG. 2, DTH mice
Method: [4] Delayed Hypersensitive Response Animal Model (DTH)
1) The sensitization was induced by topical application of 20 μL of 0.5% (v/v) DNFB in acetone: olive oil (4:1) onto each rear paw of mice on day 0 and 1;
2) Excipient and testing compounds were given by the oral route 1 day before challenge and then once a day for 2 days (days 8-10);
3) The mice were challenged by application of 10 μL of 0.5% (v/v) DNFB on the inner and outer surfaces of the right ear on day 9;
4) The increase in the ear patch weight (8-mm punches) and ear thickness between the left and right ear was measured 30-48 h after challenge.

[4] = test system: mice arthritis induced by bovine collagen type II; experiment: Mice arthritis model induced by bovine collagen type II; assay type: in vivo, DBA/1 mice; details: for scorings of the arthritis degree: FIG. 3 and FIG. 4, with and without the compound; for swelling of the mice' joints: oral, p<0.05

| Molecule | inhibiting rate to T-cell proliferation (Con A) [1] [%] | inhibiting rate to B-cell proliferation (LPS) [2] [%] | further results |
| --- | --- | --- | --- |
| CC1CCC2C(C)C(OCCN)OC3OC4(C)CCC1C32OO4 (stereo not drawn) [Example 1, 2′-amino arteether (β type)] | 65 | 73 | EC50 [3]: 3480 ± 720 nM; thickness difference of swelling on ears (DTH mice): obviously reduced the swelling degree on ears; weight difference of ear slices (DTH mice): obviously reduced the weight of swelling ears; inhibiting rate of swelling of the ear of mice compared with the control group (DTH mice; oral, 50 mg/kg, p<0.01): 56.5%; scorings of the arthritis degree [4]: can prevent and cure the mice arthritis induced by bovine collagen type II and inhibit the swelling of the sicked joints; swelling of the mice' joints ([4]; 1 mg/kg): obviously reduce the swelling of the mice' joints |
| CC1CCC2C(C)C(OCC(O)C(NC(C)(C)C)c3ccccc3)OC3OC4(C)CCC1C32OO4 (stereo not drawn) [Example 18, 3-phenyl-3′-tert-butylamino-2′-hydroxy-artemisinin propyl ether (β type)] | 9 | 26 | – |
| CNCC(O)COC1OC2OC3(C)CCC4C(C)CCC(C1C)C24OO3 (stereo not drawn) [Example 3, 3′-methylamino-2′-hydroxy-artemisinin propyl ether (β type)] | 47 | 51 | – |
| CC1CCC2C(C)C(OCC(O)C(c3ccccc3)N3CCCCC3)OC3OC4(C)CCC1C32OO4 (stereo not drawn) [Example 16, 3′-phenyl-3′-piperidyl-2′-hydroxy-artemisinin propyl ether (β type)] | 0 | 51 | – |
| CC1CCC2C(C)C(OCC(O)CNC(C)(C)C)OC3OC4(C)CCC1C32OO4 (stereo not drawn) [Example 14, 3′-tert-butylamino-2′-hydroxy-artemisinin propyl ether (β type)] | 52 | 81 | EC50 [3]: 670 ± 12 nM; thickness difference of swelling on ears (DTH mice): obviously reduced the swelling degree on ears; weight difference of ear slices (DTH mice): obviously reduced the weight of swelling ears; inhibiting rate of swelling of the ear of mice compared with the control group (DTH mice; oral, 50 mg/kg, p<0.01): 52.2%; scorings of the arthritis degree [4]: can prevent and cure the mice arthritis induced by bovine collagen type II and inhibit the swelling of the sicked joints; swelling of the mice' joints ([4]; 0.5 mg/kg): obviously reduce the swelling of the mice' joints |
| CC1CCC2C(C)C(OCC(O)CN3CCCC3)OC3OC4(C)CCC1C32OO4 (stereo not drawn) [Example 11, 3′-pyrrolidinyl-2′-hydroxy-artemisinin propyl ether (β type)] | 48 | 99 | thickness difference of swelling on ears (DTH mice): obviously reduced the swelling degree on ears; weight difference of ear slices (DTH mice): obviously reduced the weight of swelling ears; inhibiting rate of swelling of the ear of mice compared with the control group (DTH mice; oral, 100 mg/kg, p<0.01): 50.5% |
| CC1CCC2C(C)C(OCC(O)CN3CCCCC3)OC3OC4(C)CCC1C32OO4 (stereo not drawn) [Example 12, 3′-piperidyl-2′-hydroxy-artemisinin propyl ether (β type)] | 47 | 47 | – |
| CC1CCC2C(C)C(OCC(O)CN)OC3OC4(C)CCC1C32OO4 (stereo not drawn) [Example 2, 3′-amino-2′-hydroxy-artemisinin propyl ether (β type)] | 48 | 48 | – |
| CC1CCC2C(C)C(OCC(O)C(N)c3ccccc3)OC3OC4(C)CCC1C32OO4 (stereo not drawn) [Example 8, 3′-phenyl-3′-amino-2′-hydroxy-artemisinin propyl ether (β type)] | 13 | 42 | – |
| cyclosporine A [reference compound] | – | – | inhibiting rate of swelling of the ear of mice compared with the control group (DTH mice; 5 mg/kg): 40.6% |
| CC1CCC2C(C)C(OCC(O)C(c3ccccc3)N(C)C)OC3OC4(C)CCC1C32OO4 (stereo not drawn) [Example 17, 3′-phenyl-3′-dimethylamino-2′-hydroxy-artemisinin propyl ether (β type)] | 6 | 24 | – |
